From PubChem BioAssay (NCI)
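Cultured in 96-well plates, cells were exposed to test compound for 48 hours across five concentrations. Definition used: TGI = concentration required for complete inhibition of growth.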

Assays:
Experiment in all cases: DTP human tumour cell line panel, 48 h
786-0 renal = system: 786-0 renal
COLO 205 colon = system: COLO 205 colon
HCT-116 colon = system: HCT-116 colon
HT29 colon = system: HT29 colon
IGROV1 ovarian = system: IGROV1 ovarian
KM12 colon = system: KM12 colon
MOLT-4 leukemia = system: MOLT-4 leukemia
SK-MEL-28 melanoma = system: SK-MEL-28 melanoma
SK-MEL-5 melanoma = system: SK-MEL-5 melanoma
SR leukemia = system: SR leukemia

SMILES	TGI (786-0 renal) [µM]	TGI (COLO 205 colon) [µM]	TGI (HCT-116 colon) [µM]	TGI (HT29 colon) [µM]	TGI (IGROV1 ovarian) [µM]	TGI (KM12 colon) [µM]	TGI (MOLT-4 leukemia) [µM]	TGI (SK-MEL-28 melanoma) [µM]	TGI (SK-MEL-5 melanoma) [µM]	TGI (SR leukemia) [µM]
COC(=O)N[C@H](C(=O)O)C(C)O[Si](C)(C)C(C)(C)C (stereo not given in full)	> 100	> 100	> 100	> 100	> 100	> 100	> 100	> 100	> 100	> 100
CCOC(=O)C(Cc1ccc(OC(=O)OC(C)(C)C)cc1)NC(=O)OC(C)(C)C (stereo not given)	> 100	> 100	> 100	> 100	> 100	> 100	56.7	> 100	> 100	67.5
CC(=O)NC(C)(C)C1CCC(C)=C(c2ccccc2)C1 (stereo not given)	> 100	> 100	> 100	> 100	> 100	> 100	> 100	> 100	> 100	> 100
C=C1CC(Cn2ccc(=O)[nH]c2=O)(c2ccc(Cl)cc2)OC1=O (stereo not given)	4.83	3.44	5.63	13.4	9.98	> 58.4	4.47	13.7	10.8	11.7
CC(C)=CCC/C(C)=C/COc1c2ccoc2cc2oc(=O)ccc12	> 100	32.4	85.4	81.1	> 100	> 100	42.3	> 100	28.6	43.1
CCCCCCCCCCCCCCCCOP(=O)(O)OCC(N)C(=O)O (stereo not given)	41.6	38.1	25.4	> 100	34.7	30.2	29	> 100	32.6	61.4
O=C(/C=C/c1cccc(Oc2ccccc2)c1)NCc1ccc(C(=O)NCCc2ccccc2)cc1	> 100	> 100	> 100	> 100	> 100	> 100	> 100	> 100	> 100	> 100
OCCN(/N=C\c1ccc2ccccc2c1)C1=NCCN1	64.4	34.8	79.9	89	> 100	> 100	44.5	35.3	33.1	55.9
Cc1csc2c1-n1cccc1C2=O	> 100	> 100	> 100	> 100	> 100	> 100	> 100	> 100	> 100	> 100
Cn1ncc2c(Cl)ncnc21	> 100	> 100	> 100	> 100	> 100	> 100	> 100	> 100	> 100	> 100
O=C(NC(=O)c1cc(-c2ccccc2)n[nH]1)c1ccccc1	> 100	> 100	> 100	> 100	> 100	> 100	> 100	> 100	> 100	79.2
O=C(Nc1cccc([N+](=O)[O-])c1)c1n[nH]n(-c2cccc([N+](=O)[O-])c2)c1=O	> 100	> 100	> 100	> 100	> 100	> 100	> 100	> 100	> 100	> 100
COc1cc2c(c(O)c1OC)CC1CCC(=O)N1C2c1cccc2ccccc12 (stereo not given)	94.5	28.9	45.3	34.5	59.3	55.4	> 100	52.2	26.2	> 100
COc1ccc([C@@H]2CC(=O)N2)cc1	> 100	> 100	> 100	> 100	> 100	> 100	> 100	> 100	> 100	> 100
O=C1CC[C@@]2(O)[C@H]3Cc4ccc(-c5ccccc5)c5c4[C@@]2(CCN3CC2CC2)[C@H]1O5	30.3	35	32	27.8	> 100	36.6	43.5	> 100	28.6	> 100
COC(=O)c1c(O)ccc2[nH]c3c(O)c4ccccc4cc3c12	95.6	37.3	47	> 100	43.5	38.8	> 100	76.4	> 100	> 100
COC1=CC(=O)CC(C)C12Oc1c(Cl)c(OC)cc(OC)c1C2=O (stereo not given)	> 100	64	> 93.7	> 100	> 100	> 100	> 100	> 100	> 100	> 28.2
CCCCCCCCCCCC[C@@H](O)[C@H]1CCC([C@H](O)CCCCC(=O)CCCCCCCC2=C[C@H](C)OC2=O)O1 (stereo not given in full)	> 50	> 30	> 50	> 50	> 50	> 50	> 50	> 50	> 20.2	10.1
CN(C)c1ccc(/C=C(\NC(=O)c2ccccc2)C2=NC(CCC(=O)O)C(=O)O2)cc1 (stereo not given)	> 50	> 50	> 50	> 50	> 50	> 50	> 50	> 50	> 50	> 50
NNC(=S)NCCNC(=S)NN	> 100	> 100	> 100	> 100	> 100	> 100	> 100	> 100	> 100	> 100
CC(C)(C)OC(=O)CN1CCNCCN(CC(=O)OC(C)(C)C)CCNCC1	> 100	> 100	> 100	> 100	> 100	> 100	> 100	> 100	> 100	> 100
O=C(O)c1cnc(-n2[nH]c3c(c2=O)CCCC3)[nH]c1=O	> 100	> 100	> 100	> 100	> 100	> 100	> 100	> 100	> 100	> 100
